Where two headings read alike, the source gives them in different places. Some results are limits rather than exact numbers.

The subject of one data set is HCoV-229E. Briefly: Antiviral CPE reduction assay, HCoV-229E in HEL299 cells. Format: cell-based, human coronavirus 229E. As to conditions: Human coronavirus 229E, HEL 299, MTS, mean ± SD of two or three independent experiments.
The test system of the next data set is HCoV-OC43. Briefly: Antiviral CPE reduction assay, HCoV-OC43 in HEL299 cells. The note with it: Betacoronavirus 1, OC43, HEL 299, MTS, mean ± SD of two or three independent experiments. Format: cell-based, human coronavirus OC43.
The subject of a further data set is HCoV-NL63. Briefly: Antiviral CPE reduction assay, HCoV-NL63 in Hep3B cells. As to conditions: Human coronavirus NL63, MTS, mean ± SD of two or three independent experiments. Format: cell-based, human coronavirus NL63.
The subject of data set [1] is influenza A/H1N1 (A/Ned/378/05). Briefly: Antiviral CPE reduction assay, influenza A/H1N1 in MDCK cells. Type of data set: cell-based, influenza A virus. As to conditions: Influenza A virus, read-out: Antiviral Activity (EC50) Influenza H1N1.
The test system of data set [2] is influenza A/H3N2 (A/HK/7/87). Briefly: Antiviral CPE reduction assay, influenza A/H3N2 in MDCK cells. Format: cell-based, influenza A virus. As to conditions: Influenza A virus, read-out: Antiviral Activity (EC50) Influenza H3N2.
The subject of data set [3] is influenza B (B/Ned/537/05). Briefly: Antiviral CPE reduction assay, influenza B in MDCK cells. Format: cell-based, influenza B virus. As to conditions: Influenza B virus, MDCK, read-out: Antiviral Activity (EC50) Influenza B.
Data set [4] concerns respiratory syncytial virus A (RSV A Long). Briefly: Antiviral CPE reduction assay, RSV A Long in Hep2 cells. Format: cell-based. The note with it: human respiratory syncytial virus.
Data set [5] deals with herpes simplex virus-1 (HSV-1 KOS). Briefly: Antiviral CPE reduction assay, HSV-1 KOS in HEL299 cells. Format: cell-based. The note with it: Human alphaherpesvirus 1, HEL 299, MTS, mean ± SD, no unit printed on the supplement page (Table 2 of the same screen is in µM).
Data set [6] concerns yellow fever virus (YFV 17D). Briefly: microbe, parasite or virus in culture. As to conditions: Yellow fever virus, Vero C1008, read-out: Antiviral activity (EC50) YFV 17D. Type of data set: cell-based.
A further data set concerns Zika virus (ZikV mr766). Briefly: Antiviral CPE reduction assay, Zika virus mr766 in VeroE6 cells. Type of data set: cell-based. As to conditions: Zika virus, Vero C1008, MTS, mean ± SD, no unit printed on the supplement page (Table 2 of the same screen is in µM).
Data set [7] in a line: in vitro. The note with it: human.
A short description of data set [8]: in vitro. As to conditions: human. The source holds these as a separate data set.
Data set [9] can be described thus: in vitro. The note with it: dog.
A short description of data set [10]: in vitro. The note with it: human. The source holds these as a separate data set.
Data set [11] can be described thus: in vitro. The note with it: African green monkey.
Data set [12] concerns HL-60 (acute myeloid leukemia). Briefly: MTS proliferation assay, HL-60. As to conditions: Homo sapiens, HL-60, 72 h, read-out: Anti-Proliferative Activity (IC50) HL-60.
For data set [13], the system named is K-562 (chronic myeloid leukemia). Briefly: MTS proliferation assay, K-562. As to conditions: Homo sapiens, K562, 72 h, read-out: Anti-Proliferative Activity (IC50) K-562. Background: Tetrazolium assays rely on reduction of a dye to a coloured formazan, in cell work by metabolically active cells.
Data set [14] deals with Z-138 (non-Hodgkin lymphoma). Briefly: MTS proliferation assay, Z-138. As to conditions: Homo sapiens, Z-138, 72 h, read-out: Anti-Proliferative Activity (IC50) Z-138.
The subject of a further data set is LN-229 (glioblastoma). Briefly: MTS proliferation assay, LN-229. The note with it: Homo sapiens, LN-229, 72 h, read-out: Anti-Proliferative Activity (IC50) LN-229.
In data set [15] the test system is DND-41 (acute lymphoblastic leukemia). Briefly: MTS proliferation assay, DND-41. The note with it: Homo sapiens, DND41, 72 h, read-out: Anti-Proliferative Activity (IC50) DND-41.
For data set [16], the system named is Capan-1 (pancreatic adenocarcinoma). Briefly: MTS proliferation assay, Capan-1. The note with it: Homo sapiens, CAPAN-1, 72 h, read-out: Anti-Proliferative Activity (IC50) Capan-1.
Data set [17] concerns HCT-116 (colorectal carcinoma). Briefly: MTS proliferation assay, HCT-116. The note with it: Homo sapiens, HCT-116, 72 h, read-out: Anti-Proliferative Activity (IC50) HCT-116.
In data set [18] the test system is NCI-H460 (lung carcinoma). Briefly: MTS proliferation assay, NCI-H460. As to conditions: Homo sapiens, NCI-H460, 72 h, read-out: Anti-Proliferative Activity (IC50) NCI-H460.
Where [19] appears, read: H1N1, MDCK cells, CPE reduction, MTS, mean ± SD of two or three independent experiments.
Setting [20] is: H3N2, MDCK cells, CPE reduction, MTS, mean ± SD of two or three independent experiments.
[21] abbreviates: HEp-2, Hep2 cells, CPE reduction, MTS, mean ± SD of two or three independent experiments, read-out: Antiviral Activity (EC50) RSV A Long.
Where [22] appears, read: HEp-2, read-out: Antiviral Activity (EC50) RSV A Long.

As usually defined, the EC50 is the concentration needed to bring the measured effect to its halfway point. By melting point is commonly meant the temperature, or range, at which the solid turns liquid. For orientation: IC50 means the concentration that gives 50% inhibition. `CN(C)CCNc1ncc2c(Nc3cccc4c3CCC4)ncnc2n1` [Compound 7e, N^5-(2,3-dihydro-1H-inden-4-yl)-N^2-(2-(dimethylamino)ethyl)pyrimido[4,5-d]pyrimidine-2,5-diamine]: the melting point came to 180.9 °C. In the data set with HCoV-229E, this compound showed an EC50 of 20.6 ± 0.3 µM. The EC50 in the data set with HCoV-OC43 is more than 50 µM. Also, in the data set on HCoV-NL63, the EC50 is more than 50 µM. Moreover, the EC50 in data set [1] (setting [19]) is more than 50 µM. The EC50 in data set [2] (setting [20]) was more than 50 µM. Moreover, the EC50 in [3] was more than 50 µM. Also, in [4] (setting [21]), the EC50 is more than 50 µM. The compound also registered an EC50 in [5] of more than 50 µM. The EC50 in data set [6] was more than 50 µM. In the data set on Zika virus (ZikV mr766), this compound displayed an EC50 of more than 50 µM. In “in vitro [7]”, the CC50 was more than 50 µM. The compound also displayed a CC50 in “in vitro [8]” of more than 50 µM. The CC50 in “in vitro [9]” was more than 50 µM. The CC50 in the data set “in vitro [10]” is more than 50 µM. Besides, the CC50 in the data set “in vitro [11]” was more than 50 µM. Besides, in data set [12], the IC50 was more than 100 µM. Besides, the concentration for half-maximal inhibition (IC50) in data set [13] was more than 100 µM. The IC50 in [14] is more than 100 µM. Also, the IC50 in the data set on LN-229 (glioblastoma) was more than 100 µM. Besides, the IC50 in data set [15] is more than 100 µM. In addition, the IC50 in data set [16] is more than 100 µM. In addition, the IC50 in data set [17] was more than 100 µM. In data set [18], the IC50 was more than 100 µM.

On to `C#Cc1cccc(Nc2ncnc3cc(OCCOC)c(OCCOC)cc23)c1` [Erlotinib, erlotinib, reference compound], for which the EC50 in the data set with HCoV-229E was 22.5 ± 10 µM; in the data set on HCoV-OC43, more than 100 µM; in the data set with HCoV-NL63, more than 100 µM; in [1] (setting [19]), more than 100 µM; in data set [2] (setting [20]) it was more than 100 µM; in [3], more than 100 µM. The EC50 (in [4] (setting [21]); in data set [5]; in data set [6]; in the data set with Zika virus (ZikV mr766)) was more than 100 µM throughout. In addition, the CC50 in the data set “in vitro [7]”, in the data set “in vitro [8]”, in “in vitro [9]”, in the data set “in vitro [10]” and in “in vitro [11]” was more than 100 µM throughout. For the same compound, the IC50 in data set [12] is 10.7 ± 0.1 µM; in [13], more than 100 µM; in data set [14] it was more than 100 µM; in the data set with LN-229 (glioblastoma) it was more than 100 µM; in data set [15], more than 100 µM; in [16], 18.6 ± 1.1 µM. Also, the IC50 in data set [17] and in data set [18] was more than 100 µM throughout.

As to `C#Cc1cccc(Nc2ncnc3cc(OCCOC)c(OCCO)cc23)c1` [OSI-420, reference compound], the EC50 was more than 100 µM with HCoV-229E; more than 100 µM in the data set with HCoV-OC43; more than 100 µM with HCoV-NL63; more than 100 µM in [1] (H1N1, MDCK); more than 100 µM in [2] (H3N2, MDCK); more than 100 µM in data set [3]. Further, the EC50 (in data set [4] (setting [22]); in data set [5]; in data set [6]; in the data set on Zika virus (ZikV mr766)) was more than 100 µM each time. In addition, the CC50 in “in vitro [9]” and in “in vitro [11]” was more than 100 µM each time. The IC50 is more than 100 µM in data set [12]; more than 100 µM in data set [13]; more than 100 µM in data set [14]; more than 100 µM with LN-229 (glioblastoma); more than 100 µM in data set [15]; 41.7 ± 3.6 µM in data set [16]. Further, the IC50 in data set [17] and in data set [18] was more than 100 µM in each case.

Turning to `C#Cc1cccc(Nc2ncnc3nc(NCCN(CC)CC)ncc23)c1` [Compound 7i, N^2-[2-(diethylamino)ethyl]-N^5-(3-ethynylphenyl)pyrimido[4,5-d]pyrimidine-2,5-diamine], the EC50 was 19.3 ± 6.6 µM with HCoV-229E; not below 39.8 µM with HCoV-OC43; more than 50 µM in the data set on HCoV-NL63; more than 50 µM in data set [1] (setting [19]); more than 50 µM in [2] (setting [20]); more than 50 µM in [3]. Besides, the EC50 (in data set [4] (setting [21]); in [5]; in data set [6]; in the data set with Zika virus (ZikV mr766)) was more than 50 µM throughout. In addition, the CC50 in the data set “in vitro [9]” and in the data set “in vitro [11]” was more than 50 µM throughout. The 50% inhibitory concentration (IC50) in data set [12] is more than 100 µM; in data set [13], 51.8 ± 3.5 µM; in data set [14], 62.1 ± 0.8 µM; in the data set on LN-229 (glioblastoma), more than 100 µM; in data set [15], 62.6 ± 0.1 µM; in data set [16] it was more than 100 µM. Further, the IC50 in data set [17] and in [18] was more than 100 µM in each case.

`CCC(CC)COC(=O)[C@H](C)N[P@](=O)(OC[C@H]1O[C@@](C#N)(c2ccc3c(N)ncnn23)[C@H](O)[C@@H]1O)Oc1ccccc1` [Remdesivir, remdesivir, reference compound]: the EC50 with HCoV-229E was 0.05 ± 0.04 µM; with HCoV-OC43, 0.14 ± 0.007 µM; with HCoV-NL63, 0.14 ± 0.04 µM; in [4] (setting [21]) it was 0.008 ± 0.001 µM. In addition, the CC50 in “in vitro [7]” was more than 10 µM.

Consider `COc1cc([C@@H]2c3cc4c(cc3[C@@H](O[C@@H]3O[C@@H]5CO[C@@H](C)O[C@H]5[C@H](O)[C@H]3O)[C@H]3COC(=O)[C@H]23)OCO4)cc(OC)c1O` [Etoposide, etoposide, reference compound], for which the IC50 stood at 0.2 ± 0.01 µM in data set [12]; 6 ± 2 µM in [13]; 0.08 ± 0.03 µM in data set [14]; 3 ± 0.2 µM in the data set with LN-229 (glioblastoma); 0.1 ± 0.02 µM in data set [15]; 0.1 ± 0.03 µM in data set [16]. The IC50 in [17] came out at 1.4 ± 0.09 µM; in data set [18], 2.2 ± 0.8 µM.

With `NC(=O)c1ncn([C@@H]2O[C@H](CO)[C@@H](O)[C@H]2O)n1` [Ribavirin, ribavirin, reference compound], the EC50 is 38.9 ± 1.7 µM in the data set with HCoV-229E; 100 ± 19 µM in the data set on HCoV-OC43; 39.9 ± 7.1 µM in the data set on HCoV-NL63; 9.6 ± 1 µM in [1] (H1N1, MDCK); 7.2 ± 1.6 µM in [2] (H3N2, MDCK); 7.4 ± 0.8 µM in data set [3]. In addition, the values for the 50% effective concentration (EC50) (in data set [4] (setting [22]); in [6]; in the data set with Zika virus (ZikV mr766)) were 35.9 ± 1.3 µM, 24.5 µM and 104 µM, respectively. The CC50 in the data set “in vitro [9]” and in “in vitro [11]” was more than 250 µM in each case.

Turning to `CC(=O)N[C@H]1[C@H]([C@H](O)[C@H](O)CO)OC(C(=O)O)=C[C@@H]1N=C(N)N` [Zanamivir, zanamivir, reference compound], the EC50 amounted to 0.6 ± 0.3 µM in data set [1] (setting [19]), 3 ± 0.2 µM in [2] (setting [20]) and 0.4 ± 0.01 µM in data set [3]. Further, the CC50 in “in vitro [9]” is more than 100 µM.

With `CC(N)C12CC3CC(CC(C3)C1)C2` (centres unmarked) [Rimantadine, rimantadine, reference compound], the EC50 is 1.7 ± 0.5 µM in data set [1] (setting [19]), 0.6 ± 0.07 µM in [2] (setting [20]) and more than 100 µM in data set [3]. In “in vitro [9]”, this compound gave a CC50 of more than 100 µM.

Values taken from article PMC11643962, “Exploring 4,7-Disubstituted Pyrimido[4,5-d]pyrimidines as Antiviral and Anticancer Agents” (Molecules, 2024).
